According to patent US8829016B2, “Triazole compounds as potential anti-inflammatory agents” (King Saud University, priority 2011, dated 2014):

What was measured:
[1] = tested on: carrageenan-induced rat paw edema; assay: In vivo carrageenan induced rat paw edema assay; design: species or system rat (male Sprague-Dawley); settings: compound intravenously in DMSO one hour before carrageenan, vs vehicle control = 0%
Description: (§1) Anti-inflammatory activity was determined by the carrageenan-induced rat paw edema method described by Winter et al., Proc. Soc. Exp. Biol. Med. 1962, 111, 544, using male Sprague-Dawley rats weighing 150 to 200 g (6-8 weeks old). The protocol for the animal experiments performed was approved by the Research Ethics Committee and Animal Care and Use Committee, Govt. of Saudi Arabia. Compounds were administered intravenously in dimethyl sulfoxide solution. Paw edema was induced by intradermal injection of 50 μ. of 1% λ-carrageenan (Sigma, USA) into the subplantar region of the right hind paw, after one hour of compound administration. […] The control group received only the vehicle. Increase in paw volume was compared with that in the control group and percent inhibition was calculated taking the values in the control group as 0% inhibition.
In Vivo Carrageenan Induced Rat Paw Edema Assay
as §1, with “(Winter” for “Winter”, “al.” for “al.,”, “544). Male” for “544, using male”, “old) were used in groups of six animals per group for the experiments. The animals were housed in a room with temperature of 22±2° C. under a 12 h light/dark cycle. They were allowed free access to food and water ad libitum.” for “old).”, “μl” for “μ.”, “X-carrageenan” for “λ-carrageenan”

ovine COX-1 = target: T1, ovine COX-1 (Ovis aries, UniProt P05979); assay: In vitro COX inhibition assay, colorimetric COX (ovine) inhibitor screening kit, COX-1; type: biochemical; settings: ovine COX-1, colorimetric kit
T1 construct: purchased Cayman Chemicals, USA
T1 sequence (P05979 25-600): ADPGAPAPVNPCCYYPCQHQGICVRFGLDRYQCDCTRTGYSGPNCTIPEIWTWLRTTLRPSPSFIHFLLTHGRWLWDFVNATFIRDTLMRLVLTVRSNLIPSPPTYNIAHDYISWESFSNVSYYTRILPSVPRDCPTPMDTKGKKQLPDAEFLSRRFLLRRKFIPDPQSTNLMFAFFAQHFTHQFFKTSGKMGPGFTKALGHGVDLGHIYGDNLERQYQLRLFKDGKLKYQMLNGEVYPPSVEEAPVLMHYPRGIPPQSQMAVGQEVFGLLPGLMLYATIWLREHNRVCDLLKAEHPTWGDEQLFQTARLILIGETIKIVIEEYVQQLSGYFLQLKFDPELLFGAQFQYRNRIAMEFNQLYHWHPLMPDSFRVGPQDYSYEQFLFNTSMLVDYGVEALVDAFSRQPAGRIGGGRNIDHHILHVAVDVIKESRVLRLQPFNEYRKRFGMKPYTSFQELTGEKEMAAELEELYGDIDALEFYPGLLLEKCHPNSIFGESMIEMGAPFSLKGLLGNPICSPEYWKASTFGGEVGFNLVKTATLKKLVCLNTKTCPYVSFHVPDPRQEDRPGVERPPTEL
Description: (§2) Inhibition of the enzymes was determined with the colorimetric COX (ovine) inhibitor screening assay.
(§3) In Vitro COX Inhibition Assay
(§4) The final compounds were evaluated for their ability to inhibit ovine COX-1 and COX-2 enzymes [50% percent inhibition is expressed in molar concentration […]] […] Inhibition of the enzymes was determined with the colorimetric COX (ovine) inhibitor screening assay kit (Cayman Chemicals, USA) using ELISA reader.

ovine COX-2 = target: T2, ovine COX-2 (Ovis aries, UniProt P79208); assay: In vitro COX inhibition assay, colorimetric COX (ovine) inhibitor screening kit, COX-2; type: biochemical; settings: for IC50: ovine COX-2, colorimetric kit; for Selectivity index (COX-1/COX-2): ratio of IC50 COX-1 / IC50 COX-2
T2 construct: purchased Cayman Chemicals, USA
T2 sequence (P79208 17-603): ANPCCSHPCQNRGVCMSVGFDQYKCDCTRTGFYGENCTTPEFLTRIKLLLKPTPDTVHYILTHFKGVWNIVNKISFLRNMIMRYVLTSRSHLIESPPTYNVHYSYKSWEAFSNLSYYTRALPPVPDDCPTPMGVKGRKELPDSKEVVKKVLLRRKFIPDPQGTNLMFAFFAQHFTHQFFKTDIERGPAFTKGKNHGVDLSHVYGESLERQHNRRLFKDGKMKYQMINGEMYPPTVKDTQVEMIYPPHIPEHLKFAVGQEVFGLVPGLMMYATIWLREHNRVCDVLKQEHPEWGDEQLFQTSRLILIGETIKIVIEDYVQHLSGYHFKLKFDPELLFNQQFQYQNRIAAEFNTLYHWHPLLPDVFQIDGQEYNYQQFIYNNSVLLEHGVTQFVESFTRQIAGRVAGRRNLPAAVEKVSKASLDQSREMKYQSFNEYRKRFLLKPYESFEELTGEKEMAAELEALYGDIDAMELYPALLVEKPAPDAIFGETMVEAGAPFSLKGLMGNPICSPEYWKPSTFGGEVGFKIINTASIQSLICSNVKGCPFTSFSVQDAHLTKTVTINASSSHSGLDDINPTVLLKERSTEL
Description: as §2, §3, §4

SMILES | melting point | AI activity % inhibition at 1 hr (carrageenan paw edema) [1] | AI activity % inhibition at 2 hr (carrageenan paw edema) [1] | IC50 (ovine COX-1) | IC50 (ovine COX-2) | Selectivity index (COX-1/COX-2) (ovine COX-2)
C#CCSC1NN=C(c2ccncc2)N1c1ccccc1 (stereo not drawn) [Compound 3, 4-Phenyl-3-(prop-2-ynylthio)-5-pyridine-4-yl-2,4-dihydro-3H-1,2,4-triazole] | 151 to 152 °C | – | – | – | – | –
Cc1ccc(-c2cc(C(F)(F)F)nn2-c2ccc(S(N)(=O)=O)cc2)cc1 [Celecoxib, reference compound] | – | 50 ± 2.1% | 71.5 ± 3.7% | – | – | –
S=c1n(CN2CCCC2)nc(-c2ccncc2)n1-c1ccccc1 [Compound 10, 4-Phenyl-5-pyridine-4-yl-2-pyrrolidinylmethyl-2,4-dihydro-3H-1,2,4-triazole-3-thione] | – | 62 ± 3.4% | 66 ± 1.5% | 3.7 nM | 0.9 nM | 4.11
CN(C)Cn1nc(-c2ccncc2)n(-c2ccccc2)c1=S [Compound 8, 2-Dimethylaminomethyl-4-phenyl-5-pyridine-4-yl-2,4-dihydro-3H-1,2,4-triazole-3-thione] | 173 to 174 °C | 51 ± 1.5% | 76 ± 2.8% | 3.1 nM | 0.9 nM | 3.44
S=c1n(CNCc2ccc(Cl)cc2)nc(-c2ccncc2)n1-c1ccccc1 [Compound 13, 2-[(4-Chlorobenzylamino)methyl]-4-phenyl-5-pyridine-4-yl-2,4-dihydro-3H-1,2,4-triazole-3-thione] | – | 16 ± 5.7% | 19 ± 6.3% | 8.7 nM | 6.8 nM | 1.38
CCCC(C)SC1NN=C(c2ccncc2)N1c1ccccc1 (stereo not drawn) [Compound 4, 3-[(Pent-2-yl)thio]-4-phenyl-5-pyridine-4-yl-2,4-dihydro-3H-1,2,4-triazole] | 96 to 97 °C | – | – | – | – | –
C#CCSc1nnc(-c2ccncc2)n1-c1ccccc1 [Compound 3, 4-Phenyl-3-(prop-2-ynylthio)-5-pyridine-4-yl-2,4-dihydro-3H-1,2,4-triazole] | – | 10 ± 5.4% | 12 ± 4.9% | 7.5 nM | 5.3 nM | 1.42
S=c1n(CNc2ccc(Br)cc2)nc(-c2ccncc2)n1-c1ccccc1 [Compound 12, 2-[(4-Bromophenylamino)methyl]-4-phenyl-5-pyridine-4-yl-2,4-dihydro-3H-1,2,4-triazole-3-thione] | 208 to 209 °C | 12.5 ± 1.6% | 29 ± 3.8% | 6.4 nM | 3.9 nM | 1.64
CCN(CC)Cn1nc(-c2ccncc2)n(-c2ccccc2)c1=S [Compound 9, 2-Diethylaminomethyl-4-phenyl-5-pyridine-4-yl-2,4-dihydro-3H-1,2,4-triazole-3-thione] | 216 to 217 °C | 45 ± 1.1% | 66 ± 1.2% | 3.8 nM | 1.1 nM | 3.46
CCOC(=O)n1nc(-c2ccncc2)n(-c2ccccc2)c1=S [Compound 6, Ethyl[4-phenyl-5-pyridine-4-yl-3-thioxo-2,4-dihydro-3H-1,2,4-triazole-2-yl]carboxylate] | 231 to 232 °C | 0.0% | 5 ± 1.8% | 9.2 nM | 7.8 nM | 1.18
OCn1nc(-c2ccncc2)n(-c2ccccc2)c1=S [Compound 7, 2-Hydroxymethyl-4-phenyl-5-pyridine-4-yl-2,4-dihydro-3H-1,2,4-triazole-3-thione] | 277 to 278 °C | 25 ± 1.8% | 66 ± 2.6% | 3.5 nM | 0.8 nM | 4.38
CN(CCO)Cn1nc(-c2ccncc2)n(-c2ccccc2)c1=S [Compound 11, N-Methyl-N-[(4-phenyl-5-pyridine-4-yl-3-thioxo-2,4-dihydro-3H-1,2,4-triazol-2-y)methyl]-2-aminoethanol] | 173 to 174 °C | Zero | 16 ± 5.9% | 4.5 nM | 2.1 nM | 2.14
C=CCCCSC1NN=C(c2ccncc2)N1c1ccccc1 (stereo not drawn) [Compound 5] | 132 to 133 °C | – | – | – | – | –
C=CCCCSc1nnc(-c2ccncc2)n1-c1ccccc1 [Compound 5] | – | 9 ± 1.3% | 38 ± 1.8% | 4.4 nM | 2.6 nM | 1.69
CCCC(C)Sc1nnc(-c2ccncc2)n1-c1ccccc1 (stereo not drawn) [Compound 4, 3-[(Pent-2-yl)thio]-4-phenyl-5-pyridine-4-yl-2,4-dihydro-3H-1,2,4-triazole] | – | 36 ± 2.1% | 50 ± 2.5% | 3.7 nM | 1.4 nM | 2.64
